# Test results as given in PMC5508574 (Nature biotechnology, 2016).
# Legend:
# [1] = tested on: 4 EGFR-mutant cell lines in the pool; experiment: PRISM compound assay, mixture of 25 barcoded lung adenocarcinoma cell lines; format: cell-based, human; details: 0–10 μM, 5 days, viability relative to DMSO
# [2] = tested on: BRAF-mutant vs BRAF wild-type cell lines; experiment: PRISM, 100 barcoded cell lines in 4 pools of 25, BRAF genotype comparison; details: AUC of viability, 100 cell lines, PRISM (and Nuclei, ATP)
# [3] = tested on: 25 barcoded lung adenocarcinoma cell lines in mixture; experiment: PRISM compound assay, mixture of 25 barcoded lung adenocarcinoma cell lines; format: cell-based, human; details: 0–10 μg/ml, 5 days, viability relative to DMSO
# [4] = tested on: NCI-H2228; experiment: as above; format: cell-based, human; details: 0–10 μM, 5 days, in mixture
# [5] = tested on: NCI-H3122 cell line; experiment: as above; format: cell-based, human; details: 0–10 μM, 5 days, in mixture
structure (smiles),measurement,setting,value
C#Cc1cccc(Nc2ncnc3cc(OCCOC)c(OCCOC)cc23)c1 [erlotinib],Killing of EGFR-mutant cell lines in the pool,[1],dose-dependent killing
CCCS(=O)(=O)Nc1ccc(F)c(C(=O)c2c[nH]c3ncc(Cl)cc23)c1F [PLX4720],Differential sensitivity of BRAF-mutant vs BRAF wild-type cell lines,[2],hypersensitivity
CNC(=O)c1cc(Oc2ccc(NC(=O)Nc3ccc(Cl)c(C(F)(F)F)c3)cc2)ccn1 [sorafenib],Differential sensitivity of BRAF-mutant vs BRAF wild-type cell lines,[2],No significant differential sensitivity
COc1ccc(C[C@H](N)C(=O)N[C@H]2[C@@H](O)[C@H](n3cnc4c(N(C)C)ncnc43)O[C@@H]2CO)cc1 [puromycin],Pattern of cell killing across the pool,[3],uniform killing across the pool
COc1cc(N2CCC(N3CCN(C)CC3)CC2)ccc1Nc1ncc(Cl)c(Nc2ccccc2S(=O)(=O)C(C)C)n1 [NVP-TAE-684],Sensitivity of NCI-H2228 (different EML4-ALK translocation),[4],intrinsic resistance
same,Sensitivity of NCI-H3122 (EML4-ALK translocation),[5],sensitive
